We go through two compounds from patent publication US20190224192A1, “Stable Pharmaceutical Composition of Vortioxetine Hydrobromide” (Cipla Limited, priority 2016, published 2019).

The conditions of data set [1]: cited from earlier work.
Data set [2] can be described thus: in vitro dissolution of premix compared to beta form. The conditions noted are these: unit assumed. It is filed as physicochemical. The text has this: FIG. 2: FIGS. 2a and 2b show dissolution data of a Vortioxetine hydrobromide premix according to the present invention compared to the beta form of Vortioxetine hydrobromide.
In one aspect, the present invention provides a Vortioxetine hydrobromide premix having stability and dissolution properties such that it can be easily formulated into pharmaceutically useful composition.

Data set [3] in a line: solid state form stability (conversion of form on stability). The class given is physicochemical. The text has this:
WO 2016/062860 relates to a pharmaceutical composition comprising amorphous Vortioxetine hydrobromide, a process for the preparation thereof, use thereof and a method for stabilizing Vortioxetine hydrobromide in a pharmaceutical composition.
However, this technique is not desirable in cases where the melting point of the drug to be converted is very high. For the process to work, it is required that the drug undergoes complete melting, which would lead to complete conversion. The melting point of the drug Vortioxetine is very high, in order of 227-230 degrees. The normal temperatures that are employed in the laboratory is around 180 C, maximizing to 200 C. The HME in this case was attempted with Klucel and Kollidone VA 64. […] This could be attributed to the incomplete melting of the drug and thus incomplete form conversion.

Molecules are shown by their SMILES. Where a name gives a salt, the structure may show the parent alone.

In the case of `Br.Cc1ccc(Sc2ccccc2N2CCNCC2)c(C)c1` [Beta Form, Vortioxetine hydrobromide], in data set [1], the aqueous solubility result is on record as “about 1.2 mg/ml”. Moreover, the in vitro dissolution in data set [2] (Time in min 15) was determined as 14%; in data set [2] (Time in min 30) it was 20%; in data set [2] (Time in min 60), 29%; in data set [2] (Time in min 120), 37%; in data set [2] (Time in min 240), 49%; in data set [2] (Time in min 480), 61%. Moreover, the in vitro dissolution in data set [2] (Time in min 600) and in data set [2] (Time in min 720) was 63% each time.

`Cc1ccc(Sc2ccccc2N2CCNCC2)c(C)c1` [amorphous Vortioxetine hydrobromide, Vortioxetine hydrobromide]: the “solid state form conversion on stability” value in data set [3] was “gets converted to a more stable crystalline form”.
